Where a name gives a salt, the structure may show the parent alone.
Tests used:
GSK3alpha = GSK3alpha (Homo sapiens, UniProt P49840); assay: GSK3alpha assay (same as the GSK3beta assay, 0.25 ng/μl GSK3alpha); assay type: biochemical; conditions: ranges of pIC50 (−log IC50 (M)), 1 μM ATP, read-out: GSK3a pIC50 (converted)
Experimental: (§1) GSK3beta assays were performed at room temperature in a 100 μl reaction volume of 25 mM Tris (pH 7.4) containing 10 mM MgCl2.6H2O, 1 mM DTI, 0.1 mgiml BSA, 5% glycerol and containing 5.7 ng/μl GSK3β, 5 μM biotinylated phosphorylated CREB peptide, 1 μM ATP, 0.85 μCi/ml ATP-P^33 and a suitable amount of a test compound of formula (I). After one hour, the reaction was terminated by adding 70 μl of Stop mix (0.1 mM ATP, 5 mg/ml streptavidin coated PVT SPA bead pH 11.0). The beads to which the phosphorylated CREB peptide is attached were allowed to settle overnight and the radioactivity of the beads was counted in a microtiterplate scintillation counter and compared with the results obtained in a control experiment (without the presence of a test compound) in order to determine the percentage of GSK3β inhibition. The IC50 value, i.e. the concentration (M) of the test compound at which 50% of GSK3β is inhibited, was calculated from the dose response curve obtained by performing the above-described GSK3β assay in the presence of different amounts of the test compound.
The GSK3alpha assay was performed in the same way as described above for the GSK3beta assay except for the concentration of GSK3alpha which is 0.25 ng/μl.

GSK3β = GSK3β (Homo sapiens, UniProt P49841); assay: GSK3beta assay (SPA, biotinylated phosphorylated CREB peptide, ATP-P33); assay type: biochemical; conditions: ranges of pIC50 (−log IC50 (M)); 1 μM ATP, room temperature, one hour; read-out: GSK3b pIC50 (converted)
Experimental: as §1

Chain of GSK3alpha (P49840 whole entry, species assumed): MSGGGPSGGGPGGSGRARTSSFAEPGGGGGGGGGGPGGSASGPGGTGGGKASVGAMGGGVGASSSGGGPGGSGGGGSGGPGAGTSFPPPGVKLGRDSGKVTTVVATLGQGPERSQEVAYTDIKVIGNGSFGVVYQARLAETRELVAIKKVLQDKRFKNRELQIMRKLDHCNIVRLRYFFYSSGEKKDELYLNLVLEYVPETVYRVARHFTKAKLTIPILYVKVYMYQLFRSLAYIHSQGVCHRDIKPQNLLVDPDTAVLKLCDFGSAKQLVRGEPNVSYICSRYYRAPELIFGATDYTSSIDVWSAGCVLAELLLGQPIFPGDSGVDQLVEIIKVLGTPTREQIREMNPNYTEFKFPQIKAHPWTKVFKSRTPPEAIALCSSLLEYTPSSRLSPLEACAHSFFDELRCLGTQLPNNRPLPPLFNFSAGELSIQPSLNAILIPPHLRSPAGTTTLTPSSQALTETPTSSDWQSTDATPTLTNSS
Chain of GSK3β (P49841 whole entry, species assumed): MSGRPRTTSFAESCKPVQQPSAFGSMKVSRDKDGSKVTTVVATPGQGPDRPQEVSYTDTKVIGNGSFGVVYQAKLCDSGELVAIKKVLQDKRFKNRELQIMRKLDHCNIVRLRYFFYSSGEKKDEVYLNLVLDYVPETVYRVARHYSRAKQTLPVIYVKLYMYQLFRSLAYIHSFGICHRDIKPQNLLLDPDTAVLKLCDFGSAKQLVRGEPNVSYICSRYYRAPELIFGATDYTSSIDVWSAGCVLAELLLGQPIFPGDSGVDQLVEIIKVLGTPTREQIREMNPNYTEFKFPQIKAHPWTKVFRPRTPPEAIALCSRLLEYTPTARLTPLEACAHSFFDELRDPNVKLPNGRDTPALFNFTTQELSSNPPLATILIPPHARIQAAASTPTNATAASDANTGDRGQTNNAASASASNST

Structure (SMILES) | IC50 (GSK3alpha) [M] | IC50 (GSK3β) [M] | melting point [°C]
COCc1cccc(-n2nnc3cnc(Nc4ccc(OCCN5CCN(C)CC5)cc4)nc32)c1 [Compound 105] | 1e-08 to 1e-07 | 1e-08 to 1e-07 | 
COCCOc1cccc(-n2nnc3cnc(Nc4ccc(OCCCN5CCN(C)CC5)cc4)nc32)c1 [Compound 135] | 1e-08 to 1e-07 | 1e-08 to 1e-07 | 
O=[N+]([O-])c1cc(Nc2ncc3nnn(C4CCCCC4)c3n2)ccc1N1CCOCC1 [Compound 5] |  | 1e-08 to 1e-07 | 161.9
CN1CCN(CCCOc2ccc(Nc3ncc4nnn(-c5cccc(CC#N)c5)c4n3)cc2)CC1 [Compound 94] | < 1e-08 | < 1e-08 | 
COCCOc1cccc(-n2nnc3cnc(Nc4ccc(C(=O)N5CCN(C)CC5)cc4)nc32)c1 [Compound 133] | < 1e-08 | 1e-08 to 1e-07 | 
CN1CCN(CCOc2ccc(Nc3ncc4nnn(-c5cccc(CCO)c5)c4n3)cc2)CC1 [Compound 82] | < 1e-08 | 1e-08 | 
CN1CCN(C(=O)c2ccc(Nc3ncc4nnn(-c5cccc(CC#N)c5)c4n3)cc2)CC1 [Compound 91] | < 1e-08 | < 1e-08 | 
COCc1cccc(-n2nnc3cnc(Nc4ccc(C(=O)N5CCN(C)CC5)cc4)nc32)c1 [Compound 103] | < 1e-08 | < 1e-08 | 
Fc1cccc(-n2nnc3cnc(Nc4ccc(OCCCN5CCCCC5)cc4)nc32)c1 [Compound 142] | 1e-08 to 1e-07 | 1e-08 to 1e-07 | 
COCCOc1cccc(-n2nnc3cnc(Nc4ccc(N5CCN(C)CC5)cc4)nc32)c1 [Compound 130] | 1e-08 to 1e-07 | 1e-08 to 1e-07 | 
COCCOCc1cccc(-n2nnc3cnc(Nc4ccc(CN5CCC(O)CC5)cc4)nc32)c1 [Compound 110] | 1e-08 to 1e-07 | 1e-08 to 1e-07 | 
COCCOCc1cccc(-n2nnc3cnc(Nc4ccc(C(=O)N5CCN(C)CC5)cc4)nc32)c1 [Compound 111] | < 1e-08 | < 1e-08 | 
N#CCc1cccc(-n2nnc3cnc(Nc4ccc(C(=O)NCCN5CCOCC5)cc4)nc32)c1 [Compound 92] | < 1e-08 | < 1e-08 | 

Next, values leading:

IC50 (GSK3alpha) [M] | IC50 (GSK3β) [M] | melting point [°C] | Structure (SMILES)
< 1e-08 | < 1e-08 |  | CN1CCN(c2ccc(Nc3ncc4nnn(-c5cccc(CCO)c5)c4n3)cc2)CC1 [Compound 77]
1e-08 to 1e-07 | 1e-08 to 1e-07 |  | CC(C)CC(=O)NCc1cccc(-n2nnc3cnc(Nc4cccc(-c5cnco5)c4)nc32)c1 [Compound 120]
< 1e-08 | 1e-08 to 1e-07 |  | Brc1cccc(-n2nnc3cnc(Nc4ccc(Nc5ncccn5)cc4)nc32)c1 [Compound 54]
< 1e-08 | < 1e-08 |  | Fc1cccc(-n2nnc3cnc(Nc4cccc(-c5cc[nH]n5)c4)nc32)c1 [Compound 22]
< 1e-08 | 1e-08 to 1e-07 |  | COCc1cccc(-n2nnc3cnc(Nc4ccc(CN5CCN(C)CC5)cc4)nc32)c1 [Compound 101]
< 1e-08 | 1e-08 to 1e-07 |  | CN1CCN(CCCOc2ccc(Nc3ncc4nnn(-c5cccc(F)c5)c4n3)cc2)CC1 [Compound 143]
< 1e-08 | < 1e-08 |  | Fc1cccc(-n2nnc3cnc(Nc4ccc(-c5nn[nH]n5)cc4)nc32)c1 [Compound 138]
1e-08 to 1e-07 | 1e-08 to 1e-07 |  | CCC(C)n1ncn(-c2ccc(Nc3ncc4nnn(-c5cccc(F)c5)c4n3)cc2)c1=O (centres unmarked) [Compound 41]
< 1e-08 | < 1e-08 |  | Brc1cccc(-n2nnc3cnc(Nc4ccc(-c5nnn[nH]5)cc4)nc32)c1 [Compound 52]
< 1e-08 | < 1e-08 |  | COCc1cccc(-n2nnc3cnc(Nc4cccc(-c5nnnn5C)c4)nc32)c1 [Compound 99]
< 1e-08 | 1e-08 to 1e-07 |  | Brc1cccc(-n2nnc3cnc(Nc4ccc(-c5cc[nH]n5)cc4)nc32)c1 [Compound 50]
< 1e-08 | > 1e-07 |  | Cn1nccc1-c1cccc(Nc2ncc3nnn(-c4cccc(Br)c4)c3n2)c1 [Compound 8]
< 1e-08 | < 1e-08 |  | Nc1nccc(-c2cccc(Nc3ncc4nnn(-c5ccccc5)c4n3)c2)n1 [Compound 151]
 |  | > 250 | CN1CCN(c2cccc(Nc3ncc4nnn(-c5cccc(F)c5)c4n3)c2)CC1 (as salt: HCl) [Compound 36]
1e-08 to 1e-07 | < 1e-08 |  | Cn1nnc(-c2ccc(Nc3ncc4nnn(-c5cccc(F)c5)c4n3)cc2)n1 [Compound 42]
< 1e-08 | < 1e-08 |  | Cn1ccnc1-c1cccc(Nc2ncc3nnn(-c4cccc(F)c4)c3n2)c1 [Compound 24]
< 1e-08 | < 1e-08 |  | COCc1cccc(-n2nnc3cnc(Nc4cccc(-c5ccnc(N)n5)c4)nc32)c1 [Compound 100]

Source: US7449465B2, “Triazolopyrimidine derivatives as glycogen synthase kinase 3 inhibitors” (Janssen Pharmaceutica, N.V., priority 2003, dated 2008)
